# Test results taken from paper PMC5920526 (ACS catalysis, 2017).
# Test system: SpNanC
# Assay: Substrate specificity of SpNanC with pNP-tagged α2–3-linked sialosides
# Type: biochemical, Streptococcus pneumoniae
# Settings: reactions using 3 μg of SpNanC
row,Compound,yield of cleavage by SpNanC
1,CO[C@@H]([C@@H]1O[C@](O[C@H]2[C@@H](O)[C@@H](CO)O[C@@H](Oc3ccc([N+](=O)[O-])cc3)[C@@H]2O)(C(=O)O)C[C@H](O)[C@H]1O)[C@H](O)CO [Kdn7OMeα2–3GalβpNP],23%
2,O=C(O)C1(OC2C(O)C(CO)OC(Oc3ccc([N+](=O)[O-])cc3)C2O)CC(O)C(O)C(CC(O)CO)O1 (centres unmarked) [Kdn7deoxyα2–3GalβpNP],10%

# Same assay, conditions: sialoside as substrate of SpNanC
row,Compound,Percentage conversion
1,O=C(O)[C@@]1(O[C@H]2[C@@H](O)[C@@H](CO)O[C@@H](Oc3ccc([N+](=O)[O-])cc3)[C@@H]2O)C[C@H](O)[C@@H](F)[C@H]([C@H](O)[C@H](O)CO)O1 [Kdn5Fα2–3GalβpNP],0.48 ± 0.00%
2,[N-]=[N+]=NC1C(O)CC(OC2C(O)C(CO)OC(Oc3ccc([N+](=O)[O-])cc3)C2O)(C(=O)O)OC1C(O)C(O)CO (stereo not drawn) [Kdn5N3α2–3GalβpNP],0.32 ± 0.45%
3,CO[C@H]1[C@H]([C@H](O)[C@H](O)CO)O[C@](O[C@H]2[C@@H](O)[C@@H](CO)O[C@@H](Oc3ccc([N+](=O)[O-])cc3)[C@@H]2O)(C(=O)O)C[C@@H]1O [Kdn5OMeα2–3GalβpNP],1.53 ± 1.02%
4,O=C(O)C1(OC2C(O)C(CO)OC(Oc3ccc([N+](=O)[O-])cc3)C2O)CC(O)CC(C(O)C(O)CO)O1 (centres unmarked) [Kdn5deoxyα2–3GalβpNP],5.31 ± 0.23%
5,O=C(O)[C@]1(O[C@H]2[C@@H](O)[C@@H](CO)O[C@@H](Oc3ccc([N+](=O)[O-])cc3)[C@@H]2O)C[C@H](O)[C@@H](O)[C@H]([C@H](F)[C@H](O)CO)O1 [Kdn7Fα2–3GalβpNP],0.56 ± 0.11%
6,[N-]=[N+]=NC(C(O)CO)C1OC(OC2C(O)C(CO)OC(Oc3ccc([N+](=O)[O-])cc3)C2O)(C(=O)O)CC(O)C1O (stereo not drawn) [Kdn7N3α2–3GalβpNP],4.50 ± 0.45%
7,CO[C@@H]([C@@H]1O[C@](O[C@H]2[C@@H](O)[C@@H](CO)O[C@@H](Oc3ccc([N+](=O)[O-])cc3)[C@@H]2O)(C(=O)O)C[C@H](O)[C@H]1O)[C@H](O)CO [Kdn7OMeα2–3GalβpNP],23.4 ± 3.3%
8,O=C(O)C1(OC2C(O)C(CO)OC(Oc3ccc([N+](=O)[O-])cc3)C2O)CC(O)C(O)C(CC(O)CO)O1 (centres unmarked) [Kdn7deoxyα2–3GalβpNP],10.1 ± 0.0%
9,O=C(O)C1(OC2C(O)C(CO)OC(Oc3ccc([N+](=O)[O-])cc3)C2O)CC(O)C(O)C(C(O)C(O)CF)O1 (centres unmarked) [Kdn9Fα2–3GalβpNP],3.70 ± 1.14%
10,COCC(O)C(O)C1OC(OC2C(O)C(CO)OC(Oc3ccc([N+](=O)[O-])cc3)C2O)(C(=O)O)CC(O)C1O (centres unmarked) [Kdn9OMeα2–3GalβpNP],4.02 ± 1.36%
11,O=C(O)[C@]1(O[C@H]2[C@@H](O)[C@@H](CO)O[C@@H](Oc3ccc([N+](=O)[O-])cc3)[C@@H]2O)C[C@H](O)[C@@H](O)[C@H]([C@H](O)[C@H](O)CO)O1 [Kdnα2–3GalβpNP],4.50 ± 0.45%
12,CC(=O)NC1C(O)CC(OC2C(O)C(CO)OC(Oc3ccc([N+](=O)[O-])cc3)C2O)(C(=O)O)OC1C(F)C(O)CO (centres unmarked) [Neu5Ac7Fα2–3GalβpNP],91.0 ± 4.3%
13,CC(=O)NC1C(O)CC(OC2C(O)C(CO)OC(Oc3ccc([N+](=O)[O-])cc3)C2O)(C(=O)O)OC1C(N=[N+]=[N-])C(O)CO (stereo not drawn) [Neu5Ac7N3α2–3GalβpNP],65.9 ± 1.1%
14,COC(C(O)CO)C1OC(OC2C(O)C(CO)OC(Oc3ccc([N+](=O)[O-])cc3)C2O)(C(=O)O)CC(O)C1NC(C)=O (centres unmarked) [Neu5Ac7OMeα2–3GalβpNP],96.5 ± 1.7%
15,CC(=O)N[C@H]1[C@H](C[C@H](O)CO)O[C@@](O[C@H]2[C@@H](O)[C@@H](CO)O[C@@H](Oc3ccc([N+](=O)[O-])cc3)[C@@H]2O)(C(=O)O)C[C@@H]1O [Neu5Ac7deoxyα2–3GalβpNP],91.2 ± 1.8%
16,CC(=O)N[C@H]1[C@H]([C@H](O)[C@H](O)CF)O[C@@](O[C@H]2[C@@H](O)[C@@H](CO)O[C@@H](Oc3ccc([N+](=O)[O-])cc3)[C@@H]2O)(C(=O)O)C[C@@H]1O [Neu5Ac9Fα2–3GalβpNP],75.6 ± 3.9%
17,COCC(O)C(O)C1OC(OC2C(O)C(CO)OC(Oc3ccc([N+](=O)[O-])cc3)C2O)(C(=O)O)CC(O)C1NC(C)=O (centres unmarked) [Neu5Ac9OMeα2–3GalβpNP],88.5 ± 5.1%
18,CC(=O)NC1C(O)CC(OC2C(O)C(CO)OC(Oc3ccc([N+](=O)[O-])cc3)C2O)(C(=O)O)OC1C(O)C(C)O (centres unmarked) [Neu5Ac9deoxyα2–3GalβpNP],93.5 ± 3.1%
